Each structure is given as a SMILES string. The source made the active and inactive calls.

These results are taken from ChEMBL document CHEMBL1201862, “PubChem BioAssay data set” (2004).

One data set deals with Cytochrome P450 2C9 (Homo sapiens, UniProt P11712).
Another data set addresses Cytochrome P450 2C19 (Homo sapiens, UniProt P33261). As to the kind of experiment: Cytochrome panel assay with activity outcomes. Panel member name: p450-cyp2c19 Compounds with AC50 equal or less than 10 uM are considered active. Format: functional. Particulars: read-out: AC50.
The target in data set [1] is T1, Short transient receptor potential channel 4 (Mus musculus, UniProt Q9QUQ5).
T1 sequence (Q9QUQ5 whole entry): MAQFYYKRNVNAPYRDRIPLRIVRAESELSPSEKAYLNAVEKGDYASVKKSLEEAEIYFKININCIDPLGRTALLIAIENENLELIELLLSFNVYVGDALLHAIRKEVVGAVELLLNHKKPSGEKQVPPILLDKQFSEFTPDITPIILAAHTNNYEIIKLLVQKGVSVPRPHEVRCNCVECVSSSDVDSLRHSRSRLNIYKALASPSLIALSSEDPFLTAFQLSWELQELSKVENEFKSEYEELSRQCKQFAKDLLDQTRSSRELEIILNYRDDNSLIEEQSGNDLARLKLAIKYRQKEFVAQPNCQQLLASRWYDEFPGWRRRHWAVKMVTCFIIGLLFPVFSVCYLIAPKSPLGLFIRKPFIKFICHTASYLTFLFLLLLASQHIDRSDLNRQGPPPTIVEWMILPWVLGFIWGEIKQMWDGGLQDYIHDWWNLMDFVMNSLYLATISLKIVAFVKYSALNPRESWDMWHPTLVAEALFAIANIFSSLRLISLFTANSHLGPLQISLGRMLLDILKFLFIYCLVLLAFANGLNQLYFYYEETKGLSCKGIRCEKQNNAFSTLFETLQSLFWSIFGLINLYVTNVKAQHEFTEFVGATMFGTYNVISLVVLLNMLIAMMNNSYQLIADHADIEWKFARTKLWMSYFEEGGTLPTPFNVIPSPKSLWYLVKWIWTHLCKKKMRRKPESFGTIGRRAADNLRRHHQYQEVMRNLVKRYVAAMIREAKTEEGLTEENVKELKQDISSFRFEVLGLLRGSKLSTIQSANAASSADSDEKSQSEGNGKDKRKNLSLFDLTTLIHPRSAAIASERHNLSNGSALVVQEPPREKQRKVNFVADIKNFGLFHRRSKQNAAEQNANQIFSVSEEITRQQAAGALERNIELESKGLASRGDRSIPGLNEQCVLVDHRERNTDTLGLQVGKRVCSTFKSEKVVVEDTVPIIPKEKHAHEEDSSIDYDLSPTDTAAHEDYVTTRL
Briefly: mouse TRPC4 channel activators, dose response, cell-based, HEK293 TRPC4/mu-opioid, Fluo-4 calcium (AID 434937). The data set is classed as functional.

A further data set addresses T2, Aminopeptidase N (Plasmodium falciparum FcB1/Columbia, UniProt O96935).
T2 sequence (O96935 whole entry): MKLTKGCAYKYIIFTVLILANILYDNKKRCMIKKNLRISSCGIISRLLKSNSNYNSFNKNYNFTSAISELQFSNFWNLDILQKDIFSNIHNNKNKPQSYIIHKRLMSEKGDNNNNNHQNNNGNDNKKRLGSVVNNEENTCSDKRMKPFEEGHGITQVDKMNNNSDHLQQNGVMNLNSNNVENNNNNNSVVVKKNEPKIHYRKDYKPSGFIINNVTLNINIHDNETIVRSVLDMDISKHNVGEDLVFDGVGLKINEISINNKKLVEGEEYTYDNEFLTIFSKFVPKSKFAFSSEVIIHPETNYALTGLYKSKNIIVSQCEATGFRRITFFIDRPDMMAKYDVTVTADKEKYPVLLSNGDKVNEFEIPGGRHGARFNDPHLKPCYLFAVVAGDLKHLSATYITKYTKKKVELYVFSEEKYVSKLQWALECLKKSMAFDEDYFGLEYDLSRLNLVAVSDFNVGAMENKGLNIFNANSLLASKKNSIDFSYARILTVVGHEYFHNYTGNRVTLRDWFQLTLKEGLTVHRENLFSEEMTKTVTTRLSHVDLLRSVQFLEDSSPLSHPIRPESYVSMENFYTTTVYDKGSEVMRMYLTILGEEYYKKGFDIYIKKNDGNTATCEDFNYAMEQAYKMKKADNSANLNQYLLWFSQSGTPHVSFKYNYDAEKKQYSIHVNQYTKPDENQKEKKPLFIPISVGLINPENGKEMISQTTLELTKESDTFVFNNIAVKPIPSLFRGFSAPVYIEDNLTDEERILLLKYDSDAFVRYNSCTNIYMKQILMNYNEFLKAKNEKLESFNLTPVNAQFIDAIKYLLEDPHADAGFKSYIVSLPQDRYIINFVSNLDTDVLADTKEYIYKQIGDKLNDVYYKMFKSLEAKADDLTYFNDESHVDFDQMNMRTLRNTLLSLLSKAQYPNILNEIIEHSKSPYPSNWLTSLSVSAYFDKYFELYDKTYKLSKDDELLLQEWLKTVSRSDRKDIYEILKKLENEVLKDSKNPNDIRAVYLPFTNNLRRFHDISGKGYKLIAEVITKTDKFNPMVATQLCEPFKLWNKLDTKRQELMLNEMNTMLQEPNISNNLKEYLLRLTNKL
As to the kind of experiment: P. falciparum M1AAP inhibitors, biochemical, fluorogenic H-Leu-NHMec substrate, 1536-well (AID 1445). Details: species or system Plasmodium falciparum 3D7, 3D7.

The next data set addresses T3, Bcl-2-like protein 10 (Homo sapiens, UniProt Q9HD36).
T3 sequence (Q9HD36 whole entry): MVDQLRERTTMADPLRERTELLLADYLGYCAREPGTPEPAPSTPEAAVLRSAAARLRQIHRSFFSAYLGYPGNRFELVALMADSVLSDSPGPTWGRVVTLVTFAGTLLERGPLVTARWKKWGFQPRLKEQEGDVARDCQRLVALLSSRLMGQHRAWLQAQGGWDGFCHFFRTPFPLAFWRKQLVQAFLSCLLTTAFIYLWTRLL
As to the kind of experiment: displacers of TR3 peptide from Bcl-B, primary screen, selectivity assay for Bfl-1 inhibitor project, biochemical, fluorescence polarization, FITC-TR3 peptide (AID 748). (In fluorescence polarisation assays a small probe gives low polarisation when free and higher when bound to something large.)

The target in data set [2] is T1, Short transient receptor potential channel 4. As to the kind of experiment: mouse TRPC4 channel inhibitors, dose response, cell-based, HEK293 TRPC4/mu-opioid, Fluo-4 calcium (AID 434942).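 Also: potency of inhibitors blocking the TRPC4 calcium response.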 Format: functional.
Data set [3] is described as follows: NIH-3T3 fibroblast cytotoxicity, dose response, cytotoxicity control, cell-based, fluorescence, Alamar Blue, secondary assay (AID 2327).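 Also: NIH-3T3 mouse fibroblasts cultured with fluconazole at 8 µg/mL.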 The data set is classed as functional. In general terms: Alamar Blue is a resazurin reagent that responds to reducing activity.
The nature of data set [4]: C. albicans growth with fluconazole, confirmation, fluorescence, retest (AID 2467). Format: functional, cell-based.
For data set [5], the target named is T4, Histone-lysine N-methyltransferase NSD2 (Homo sapiens, UniProt O96028).
T4 sequence (O96028 whole entry): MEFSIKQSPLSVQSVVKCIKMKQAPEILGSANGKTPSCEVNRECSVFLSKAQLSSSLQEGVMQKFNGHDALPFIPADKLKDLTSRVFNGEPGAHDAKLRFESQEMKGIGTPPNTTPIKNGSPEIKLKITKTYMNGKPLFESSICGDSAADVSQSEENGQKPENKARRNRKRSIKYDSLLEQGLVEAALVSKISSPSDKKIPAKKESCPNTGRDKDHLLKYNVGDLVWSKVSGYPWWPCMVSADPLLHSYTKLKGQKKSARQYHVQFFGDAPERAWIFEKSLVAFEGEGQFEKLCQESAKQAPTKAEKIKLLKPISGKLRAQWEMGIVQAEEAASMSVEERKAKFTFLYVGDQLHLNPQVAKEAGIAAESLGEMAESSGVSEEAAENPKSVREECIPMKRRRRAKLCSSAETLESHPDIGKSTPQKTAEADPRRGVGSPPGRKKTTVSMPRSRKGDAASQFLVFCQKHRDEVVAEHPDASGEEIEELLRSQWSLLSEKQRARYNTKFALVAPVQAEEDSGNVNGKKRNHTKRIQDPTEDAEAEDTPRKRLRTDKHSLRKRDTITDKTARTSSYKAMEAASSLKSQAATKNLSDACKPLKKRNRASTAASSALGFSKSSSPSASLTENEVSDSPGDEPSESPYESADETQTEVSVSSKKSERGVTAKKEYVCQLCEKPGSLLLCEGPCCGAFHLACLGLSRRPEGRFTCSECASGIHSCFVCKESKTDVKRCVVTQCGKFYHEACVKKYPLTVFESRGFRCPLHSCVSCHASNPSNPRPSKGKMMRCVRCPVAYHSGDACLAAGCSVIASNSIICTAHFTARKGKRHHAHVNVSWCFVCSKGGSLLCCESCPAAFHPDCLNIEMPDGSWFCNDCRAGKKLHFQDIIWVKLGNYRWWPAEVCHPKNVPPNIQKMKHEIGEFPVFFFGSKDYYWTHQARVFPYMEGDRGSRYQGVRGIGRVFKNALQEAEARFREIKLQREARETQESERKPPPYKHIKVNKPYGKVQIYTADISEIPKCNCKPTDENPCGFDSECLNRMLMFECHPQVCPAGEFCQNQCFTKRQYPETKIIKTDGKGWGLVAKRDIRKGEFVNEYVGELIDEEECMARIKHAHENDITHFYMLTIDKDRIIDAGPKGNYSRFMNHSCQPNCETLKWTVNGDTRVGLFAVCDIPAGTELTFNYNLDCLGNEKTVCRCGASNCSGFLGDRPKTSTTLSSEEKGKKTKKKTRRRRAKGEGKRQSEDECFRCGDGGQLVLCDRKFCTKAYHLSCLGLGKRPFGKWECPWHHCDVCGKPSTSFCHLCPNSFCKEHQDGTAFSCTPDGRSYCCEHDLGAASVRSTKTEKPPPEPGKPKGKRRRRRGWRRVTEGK
The data set is classed as biochemical.

Data set [6] addresses Peroxisome proliferator-activated receptor gamma/Nuclear receptor coactivator 1 (Homo sapiens, UniProt P37231). The data set is classed as functional.
For data set [7], the target named is Peroxisome proliferator-activated receptor gamma/Nuclear receptor coactivator 3 (Homo sapiens, UniProt P37231). Format: functional.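 Also: agonist potency for raising coactivator recruitment to the receptor.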
Data set [8] has as its target Peroxisome proliferator-activated receptor gamma/Nuclear receptor coactivator 2 (Homo sapiens, UniProt P37231). Format: functional.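 Also: agonist potency for raising coactivator recruitment to the receptor.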
Data set [9] is described as follows: cells. Format: functional, cell-based.
The nature of data set [10]: cells. Format: functional, cell-based. The source holds these as a separate data set.
Another data set deals with INS1. As to the kind of experiment: beta cell apoptosis inhibitors, cytokine rescue, dose response, luminescence, retest (AID 449756).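 Also: cell death triggered by IL-1 beta plus TNF-alpha plus IFN-gamma mixture; protective hits raise ATP signal compared with cytokine alone wells.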 The data set is classed as functional, cell-based. Particulars: Rattus norvegicus.

Chain of Cytochrome P450 2C9 (P11712 whole entry): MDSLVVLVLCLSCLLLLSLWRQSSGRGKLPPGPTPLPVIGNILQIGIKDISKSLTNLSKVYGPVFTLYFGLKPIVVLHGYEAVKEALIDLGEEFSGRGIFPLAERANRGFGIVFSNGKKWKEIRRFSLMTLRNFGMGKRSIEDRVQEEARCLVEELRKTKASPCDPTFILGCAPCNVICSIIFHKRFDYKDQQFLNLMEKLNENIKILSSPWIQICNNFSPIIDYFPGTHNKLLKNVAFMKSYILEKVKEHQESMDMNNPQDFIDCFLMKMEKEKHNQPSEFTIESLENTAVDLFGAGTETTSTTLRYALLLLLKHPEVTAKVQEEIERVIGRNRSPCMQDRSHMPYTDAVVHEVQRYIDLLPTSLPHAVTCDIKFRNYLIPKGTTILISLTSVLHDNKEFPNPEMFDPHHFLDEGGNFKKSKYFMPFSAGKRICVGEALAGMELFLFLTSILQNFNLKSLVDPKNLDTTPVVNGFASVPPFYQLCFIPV
Chain of Peroxisome proliferator-activated receptor gamma/Nuclear receptor coactivator 1 (P37231 whole entry): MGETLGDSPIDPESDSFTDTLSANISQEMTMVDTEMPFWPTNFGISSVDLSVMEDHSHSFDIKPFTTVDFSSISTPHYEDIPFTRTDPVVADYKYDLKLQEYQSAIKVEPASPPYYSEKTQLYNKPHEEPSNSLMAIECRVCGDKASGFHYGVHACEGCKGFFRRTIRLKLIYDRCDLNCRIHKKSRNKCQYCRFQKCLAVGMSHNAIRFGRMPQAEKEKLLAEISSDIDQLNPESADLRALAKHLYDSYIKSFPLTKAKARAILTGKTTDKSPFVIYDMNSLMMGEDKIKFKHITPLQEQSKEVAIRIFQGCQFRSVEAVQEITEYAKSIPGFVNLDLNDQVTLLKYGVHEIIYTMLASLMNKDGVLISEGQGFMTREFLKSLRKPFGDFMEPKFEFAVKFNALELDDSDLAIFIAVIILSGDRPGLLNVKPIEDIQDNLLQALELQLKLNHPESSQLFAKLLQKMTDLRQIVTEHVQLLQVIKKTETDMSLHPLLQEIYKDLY
Chain of Peroxisome proliferator-activated receptor gamma/Nuclear receptor coactivator 1 (Q15788 whole entry, further chain): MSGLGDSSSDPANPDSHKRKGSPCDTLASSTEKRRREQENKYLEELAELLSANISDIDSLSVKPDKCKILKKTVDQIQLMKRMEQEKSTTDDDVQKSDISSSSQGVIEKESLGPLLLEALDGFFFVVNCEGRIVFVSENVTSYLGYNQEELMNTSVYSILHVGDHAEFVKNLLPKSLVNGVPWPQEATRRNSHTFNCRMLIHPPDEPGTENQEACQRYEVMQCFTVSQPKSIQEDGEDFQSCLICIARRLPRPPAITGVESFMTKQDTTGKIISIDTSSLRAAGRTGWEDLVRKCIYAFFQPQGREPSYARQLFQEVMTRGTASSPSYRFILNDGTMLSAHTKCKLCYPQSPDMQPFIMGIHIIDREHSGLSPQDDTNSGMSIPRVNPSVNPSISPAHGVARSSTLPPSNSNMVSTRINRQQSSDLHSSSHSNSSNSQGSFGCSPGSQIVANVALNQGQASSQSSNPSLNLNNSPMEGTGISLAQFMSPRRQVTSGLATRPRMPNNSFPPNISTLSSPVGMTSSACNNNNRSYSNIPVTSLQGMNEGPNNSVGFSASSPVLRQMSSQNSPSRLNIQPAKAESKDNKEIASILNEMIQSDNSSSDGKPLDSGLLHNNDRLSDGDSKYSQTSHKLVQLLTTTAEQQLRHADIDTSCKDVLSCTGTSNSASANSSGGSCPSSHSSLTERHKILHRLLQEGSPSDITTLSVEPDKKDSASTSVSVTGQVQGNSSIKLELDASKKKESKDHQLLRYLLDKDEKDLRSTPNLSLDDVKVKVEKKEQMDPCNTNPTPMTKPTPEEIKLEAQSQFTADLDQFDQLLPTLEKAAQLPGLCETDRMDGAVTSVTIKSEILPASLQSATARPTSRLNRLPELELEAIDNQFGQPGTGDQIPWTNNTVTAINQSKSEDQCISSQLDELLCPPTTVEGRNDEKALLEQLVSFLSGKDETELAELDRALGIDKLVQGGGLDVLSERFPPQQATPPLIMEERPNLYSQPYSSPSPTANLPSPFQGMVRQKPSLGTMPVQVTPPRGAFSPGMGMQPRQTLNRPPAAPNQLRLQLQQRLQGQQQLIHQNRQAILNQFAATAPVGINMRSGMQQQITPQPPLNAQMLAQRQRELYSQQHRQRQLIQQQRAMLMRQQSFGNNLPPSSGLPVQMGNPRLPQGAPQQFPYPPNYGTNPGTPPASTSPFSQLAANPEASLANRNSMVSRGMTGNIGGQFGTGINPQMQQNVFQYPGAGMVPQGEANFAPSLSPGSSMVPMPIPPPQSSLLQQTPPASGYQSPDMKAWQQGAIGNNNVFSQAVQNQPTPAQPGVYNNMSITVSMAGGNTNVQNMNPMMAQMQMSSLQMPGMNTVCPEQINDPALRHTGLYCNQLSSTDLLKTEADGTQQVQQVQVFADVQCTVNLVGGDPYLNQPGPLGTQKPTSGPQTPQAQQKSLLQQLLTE
Chain of Peroxisome proliferator-activated receptor gamma/Nuclear receptor coactivator 3 (P37231 whole entry): as the sequence (P37231 whole entry) above
Chain of Peroxisome proliferator-activated receptor gamma/Nuclear receptor coactivator 3 (Q9Y6Q9 whole entry, further chain): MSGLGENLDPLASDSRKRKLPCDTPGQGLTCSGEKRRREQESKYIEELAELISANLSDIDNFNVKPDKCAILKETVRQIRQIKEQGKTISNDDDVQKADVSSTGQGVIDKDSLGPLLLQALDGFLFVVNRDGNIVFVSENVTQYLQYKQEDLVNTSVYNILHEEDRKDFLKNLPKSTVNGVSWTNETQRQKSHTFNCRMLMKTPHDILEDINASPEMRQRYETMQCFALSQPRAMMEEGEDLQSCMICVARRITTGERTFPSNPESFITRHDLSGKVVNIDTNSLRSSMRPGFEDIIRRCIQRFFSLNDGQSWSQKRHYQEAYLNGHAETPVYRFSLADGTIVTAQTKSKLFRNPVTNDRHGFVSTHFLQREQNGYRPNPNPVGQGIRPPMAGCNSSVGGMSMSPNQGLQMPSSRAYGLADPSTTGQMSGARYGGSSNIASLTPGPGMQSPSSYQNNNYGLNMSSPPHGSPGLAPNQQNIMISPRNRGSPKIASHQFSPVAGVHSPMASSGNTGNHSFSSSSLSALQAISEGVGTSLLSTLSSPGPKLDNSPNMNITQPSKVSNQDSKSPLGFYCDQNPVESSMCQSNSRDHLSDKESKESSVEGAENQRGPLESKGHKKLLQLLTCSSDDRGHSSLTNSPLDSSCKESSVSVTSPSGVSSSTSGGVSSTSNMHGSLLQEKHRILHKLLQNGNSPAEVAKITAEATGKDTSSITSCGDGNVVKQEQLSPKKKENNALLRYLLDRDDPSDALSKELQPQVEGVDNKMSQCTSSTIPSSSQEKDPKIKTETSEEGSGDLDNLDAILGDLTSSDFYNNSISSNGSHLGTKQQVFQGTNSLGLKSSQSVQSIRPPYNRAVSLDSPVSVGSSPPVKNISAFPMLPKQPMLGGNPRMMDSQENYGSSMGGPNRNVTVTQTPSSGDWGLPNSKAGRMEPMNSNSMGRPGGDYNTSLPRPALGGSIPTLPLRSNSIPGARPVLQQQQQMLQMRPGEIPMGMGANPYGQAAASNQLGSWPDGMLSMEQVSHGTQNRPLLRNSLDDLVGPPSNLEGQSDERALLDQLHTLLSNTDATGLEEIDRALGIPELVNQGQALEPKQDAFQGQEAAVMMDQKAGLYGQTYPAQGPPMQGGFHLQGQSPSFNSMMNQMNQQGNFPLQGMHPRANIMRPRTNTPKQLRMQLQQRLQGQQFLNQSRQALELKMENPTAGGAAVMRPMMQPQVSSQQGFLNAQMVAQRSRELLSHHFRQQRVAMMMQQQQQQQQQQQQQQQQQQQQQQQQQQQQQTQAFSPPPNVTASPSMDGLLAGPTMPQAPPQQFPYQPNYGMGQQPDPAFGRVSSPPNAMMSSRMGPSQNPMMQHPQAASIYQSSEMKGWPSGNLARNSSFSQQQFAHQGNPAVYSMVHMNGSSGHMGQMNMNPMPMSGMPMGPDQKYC
Chain of Cytochrome P450 2C19 (P33261 whole entry): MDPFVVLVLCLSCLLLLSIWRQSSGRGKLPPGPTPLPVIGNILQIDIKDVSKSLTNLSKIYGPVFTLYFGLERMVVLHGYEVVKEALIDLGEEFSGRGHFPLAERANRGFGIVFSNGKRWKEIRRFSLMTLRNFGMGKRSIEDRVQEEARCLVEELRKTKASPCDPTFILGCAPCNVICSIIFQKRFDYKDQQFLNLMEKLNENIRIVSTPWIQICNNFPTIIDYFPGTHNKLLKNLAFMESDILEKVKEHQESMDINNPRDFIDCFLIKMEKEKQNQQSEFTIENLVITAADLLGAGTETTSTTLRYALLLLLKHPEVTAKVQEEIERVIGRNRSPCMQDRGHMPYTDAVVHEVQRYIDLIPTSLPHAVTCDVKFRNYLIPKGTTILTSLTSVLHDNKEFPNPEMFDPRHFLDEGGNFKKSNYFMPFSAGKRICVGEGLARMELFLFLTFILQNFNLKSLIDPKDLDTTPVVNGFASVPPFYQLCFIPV

For `Cn1c(=O)c2cc(S(=O)(=O)NCCC(=O)Nc3ccc(Cl)cc3)ccc2n(C)c1=O`, the AC50 entry at Cytochrome P450 2C9 is recorded as “inconclusive”.
In the case of `C[C@H]1CC[C@H]2C(=O)N[C@H](Cc3ccccc3)C(=O)N2[C@@H]1c1ccccc1`, the results for the AC50 entry on Cytochrome P450 2C9 and on Cytochrome P450 2C19 were “inconclusive” and 3.98 µM (inconclusive), respectively.
Regarding `Cc1cc(NC(=O)c2cnn3cccnc23)nn1CC(=O)Nc1cccnc1`, the EC50 in [1] was 4.22 µM (active).
`CC1=CN2C(=N)/C(=C/c3cc(Cl)c(O)c(Cl)c3)C(=O)N=C2S1`: on Aminopeptidase N, the half-maximal inhibitory concentration (IC50) is 42 µM (active).
For the compound `COc1ccc(S(=O)(=O)N2CCCC2C(=O)Nc2nnc(-c3cccnc3)s2)cc1` (stereo unspecified), the IC50 at Bcl-2-like protein 10 was > 100 µM (inactive).
The same measure, in the same setting: next, `O=C(NCCCN1CCN(Cc2ccccc2)CC1)C1CCN(c2nnc(-n3cccc3)s2)CC1`: 62.8 µM (inactive).
`OCCC1CN(Cc2ccccc2-c2ccco2)CCN1Cc1ccccc1` (stereo unspecified): the EC50 in data set [1] is 5.31 µM (active).
`CCOC(=O)C1(CC2CC2)CCN(Cc2ccc3cccc(F)c3n2)CC1`: the EC50 is 2.66 µM (active) in [1] and 0.841 µM (active) in data set [2].
Turning to `Cc1ccc(S(=O)(=O)NC2=NC(=O)/C(=C\c3cc(Br)cc(Br)c3O)S2)cc1`, the concentration for a half-maximal effect (EC50) in data set [1] is 10.6 µM (active); in data set [3], 9.99 µM (active); in data set [4] it was > 38 µM (not active). The AC50 in [5] was 6.67 µM (active).
For the compound `O=C(O)CCc1ccc(-c2cccs2)n1CCC(=O)O`, the IC50 on Bcl-2-like protein 10 was 77 µM (inactive).
In the case of `O=C(Nc1ccccc1)N1CC2(CCN(C(=O)c3cc(C(F)(F)F)cc(C(F)(F)F)c3)CC2)C1`, the AC50 result at Cytochrome P450 2C9 is listed as “inconclusive”.
In the case of `Cc1cccc(OCCOCCN2CCNCC2)c1C`, in [1], the concentration giving a half-maximal response (EC50) is 1.19 µM (active).
On to `CCc1nnc(NC(=O)CSc2ncnc3c2oc2ccccc23)s1`, for which the EC50 is listed as 22.6 µM (not active) in [6], 23.5 µM (not active) in data set [7] and 18.3 µM (not active) in data set [8].
Regarding `FC(F)(F)c1cnc(Nc2ccc(N3CCOCC3)cc2)c(Cl)c1`, the IC50 on Bcl-2-like protein 10 was 76.3 µM (inactive).
On to `O=C(N/N=C/c1cc(Cl)ccc1O)c1ccccc1Br`, for which the concentration for a half-maximal effect (EC50) in the data set “cells [9]” was > 350 µM (not active); in the data set “cells [10]”, 14.7 µM (active). On Aminopeptidase N, the IC50 is 30.8 µM (active). Moreover, the AC50 in the data set with INS1 is 2.29 µM (active).
`COc1cc(/C=N/NC(=O)[C@H](Cc2c[nH]c3ccccc23)NC(=O)OCC(C)C)cc([N+](=O)[O-])c1O`: the IC50 at Aminopeptidase N is 12.2 µM (active).

As usually defined, the AC50 is the concentration at which the activity in the assay is half-maximal. The EC50 is the concentration that produces a half-maximal response. Usually IC50 stands for the concentration that gives 50% inhibition.
